From PMC5218480 (PLoS ONE, 2017)

System: MV-4-11 cells
Experiment: Gene expression microarray analysis (Affymetrix PrimeView) and GSEA
Assay type: cell-based, human
Parameters: RFU PODN (11730768_x_at) / Fold change /veh PODN (11730768_x_at) / RFU LINC00158 (11744669_a_at) / Fold change /veh LINC00158 (11744669_a_at) / RFU DUSP10 (11751237_a_at) / Fold change /veh DUSP10 (11751237_a_at) / RFU ID3 (11757404_x_at) / Fold change /veh ID3 (11757404_x_at) / RFU PLEKHG5 (11737974_s_at) / Fold change /veh PLEKHG5 (11737974_s_at) / RFU LRRC4B (11730491_at) / Fold change /veh LRRC4B (11730491_at) / RFU GIMAP4 (11747438_a_at) / Fold change /veh GIMAP4 (11747438_a_at) / RFU KRT8 (11758183_x_at) / Fold change /veh KRT8 (11758183_x_at) / RFU CNN1 (11734310_a_at) / Fold change /veh CNN1 (11734310_a_at) / RFU VPS37D (11726825_at) / Fold change /veh VPS37D (11726825_at) / RFU C10orf10 (11716522_x_at) / Fold change /veh C10orf10 (11716522_x_at) / RFU KIR2DL2 /// KIR2DL4 /// KIR2DL5A /// KIR2DL5B /// KIR2DS1 /// KIR2DS2 /// KIR2DS3 /// KIR2DS4 /// KIR3DL3 /// KIR3DL3 /// KIR3DS1 (11738374_at) / Fold change /veh KIR2DL2 /// KIR2DL4 /// KIR2DL5A /// KIR2DL5B /// KIR2DS1 /// KIR2DS2 /// KIR2DS3 /// KIR2DS4 /// KIR3DL3 /// KIR3DL3 /// KIR3DS1 (11738374_at) / RFU C1QL1 (11718748_at) / Fold change /veh C1QL1 (11718748_at) / RFU TMPRSS4 (11747572_a_at) / Fold change /veh TMPRSS4 (11747572_a_at) / RFU HAMP (11756126_x_at) / Fold change /veh HAMP (11756126_x_at) / RFU RNFT2 (11725882_a_at) / Fold change /veh RNFT2 (11725882_a_at) / RFU NR4A2 (11747474_a_at) / Fold change /veh NR4A2 (11747474_a_at) / RFU ABCC12 (11746883_a_at) / Fold change /veh ABCC12 (11746883_a_at) / RFU TMEM136 (11760407_x_at) / Fold change /veh TMEM136 (11760407_x_at) / RFU CLDN22 /// WWC2 (11732394_at) / Fold change /veh CLDN22 /// WWC2 (11732394_at) / RFU HLA-DPB1 (11760878_x_at) / Fold change /veh HLA-DPB1 (11760878_x_at) / RFU SPINT1 (11716480_a_at) / Fold change /veh SPINT1 (11716480_a_at) / RFU GAP43 (11754022_s_at) / Fold change /veh GAP43 (11754022_s_at) / RFU A4GNT (11735810_at) / Fold change /veh A4GNT (11735810_at) / RFU PRB3 (11715151_x_at) / Fold change /veh PRB3 (11715151_x_at) / RFU TUBB4B (11761932_at) / Fold change /veh TUBB4B (11761932_at) / RFU CAPN14 (11732068_a_at) / Fold change /veh CAPN14 (11732068_a_at) / RFU TMCC2 (11721928_a_at) / Fold change /veh TMCC2 (11721928_a_at) / RFU IRGQ (11745062_a_at) / Fold change /veh IRGQ (11745062_a_at) / RFU FAM174B (11720279_a_at) / Fold change /veh FAM174B (11720279_a_at) / RFU TMPRSS4 (11748680_a_at) / Fold change /veh TMPRSS4 (11748680_a_at) / RFU FAM212B (11763350_a_at) / Fold change /veh FAM212B (11763350_a_at) / RFU PLEKHG5 (11743358_a_at) / Fold change /veh PLEKHG5 (11743358_a_at) / RFU ZSCAN30 (11745921_a_at) / Fold change /veh ZSCAN30 (11745921_a_at) / RFU CMKLR1 (11741424_a_at) / Fold change /veh CMKLR1 (11741424_a_at) / RFU LOC101060620 /// MAPK8IP1 (11723275_at) / Fold change /veh LOC101060620 /// MAPK8IP1 (11723275_at) / RFU SPTSSB (11747773_x_at) / Fold change /veh SPTSSB (11747773_x_at) / RFU PRSS12 (11739890_at) / Fold change /veh PRSS12 (11739890_at) / RFU BIN1 (11741810_x_at) / Fold change /veh BIN1 (11741810_x_at) / RFU WNT11 (11732464_a_at) / Fold change /veh WNT11 (11732464_a_at) / RFU C10orf10 (11716521_a_at) / Fold change /veh C10orf10 (11716521_a_at) / RFU C5orf56 (11738089_at) / Fold change /veh C5orf56 (11738089_at) / RFU CYB561 (11721691_x_at) / Fold change /veh CYB561 (11721691_x_at) / RFU ANKRD19P (11752326_a_at) / Fold change /veh ANKRD19P (11752326_a_at) / RFU OR2T12 /// OR2T33 /// OR2T8 (11738714_s_at) / Fold change /veh OR2T12 /// OR2T33 /// OR2T8 (11738714_s_at) / RFU VCAN (11748164_a_at) / Fold change /veh VCAN (11748164_a_at) / RFU JSRP1 (11732532_at) / Fold change /veh JSRP1 (11732532_at) / RFU KRTAP10-11 (11738290_x_at) / Fold change /veh KRTAP10-11 (11738290_x_at) / RFU MYO3A (11730013_a_at) / Fold change /veh MYO3A (11730013_a_at) / RFU EBF3 (11725865_a_at) / Fold change /veh EBF3 (11725865_a_at) / RFU CAMK2N1 (11719241_x_at) / Fold change /veh CAMK2N1 (11719241_x_at) / RFU C5orf56 (11738088_a_at) / Fold change /veh C5orf56 (11738088_a_at) / RFU OLFML3 (11715873_a_at) / Fold change /veh OLFML3 (11715873_a_at) / RFU LOC100653217 /// NTM (11731650_a_at) / Fold change /veh LOC100653217 /// NTM (11731650_a_at) / RFU MAPK11 (11762145_a_at) / Fold change /veh MAPK11 (11762145_a_at) / RFU FIZ1 (11724087_x_at) / Fold change /veh FIZ1 (11724087_x_at) / RFU OASL (11726364_x_at) / Fold change /veh OASL (11726364_x_at) / RFU SOX15 (11748057_x_at) / Fold change /veh SOX15 (11748057_x_at) / RFU CD79A (11719716_a_at) / Fold change /veh CD79A (11719716_a_at) / RFU HIST1H1D (11736915_at) / Fold change /veh HIST1H1D (11736915_at) / RFU CASKIN2 (11723855_a_at) / Fold change /veh CASKIN2 (11723855_a_at) / RFU LOC730098 (11760151_x_at) / Fold change /veh LOC730098 (11760151_x_at) / RFU OR4N2 (11742367_at) / Fold change /veh OR4N2 (11742367_at) / RFU PRRT2 (11749266_a_at) / Fold change /veh PRRT2 (11749266_a_at) / RFU SNX32 (11753110_a_at) / Fold change /veh SNX32 (11753110_a_at) / RFU CDHR5 (11726645_a_at) / Fold change /veh CDHR5 (11726645_a_at) / RFU RCAN1 (11760418_a_at) / Fold change /veh RCAN1 (11760418_a_at) / RFU FAM167A (11723789_a_at) / Fold change /veh FAM167A (11723789_a_at) / RFU FAM26E (11764081_at) / Fold change /veh FAM26E (11764081_at) / RFU ISYNA1 (11749810_s_at) / Fold change /veh ISYNA1 (11749810_s_at) / RFU ACY1 (11761880_at) / Fold change /veh ACY1 (11761880_at) / RFU 11764098_at / Fold change /veh 11764098_at / RFU SAMD14 (11745864_x_at) / Fold change /veh SAMD14 (11745864_x_at) / RFU NPB (11741838_a_at) / Fold change /veh NPB (11741838_a_at) / RFU TMPRSS6 (11731388_a_at) / Fold change /veh TMPRSS6 (11731388_a_at) / RFU KRTAP10-2 (11738614_at) / Fold change /veh KRTAP10-2 (11738614_at) / RFU ARHGAP8 /// PRR5-ARHGAP8 (11727945_x_at) / Fold change /veh ARHGAP8 /// PRR5-ARHGAP8 (11727945_x_at) / RFU KRTAP5-7 /// NADSYN1 (11734609_at) / Fold change /veh KRTAP5-7 /// NADSYN1 (11734609_at) / RFU RASL12 (11751679_a_at) / Fold change /veh RASL12 (11751679_a_at) / RFU CDKN2B (11736163_a_at) / Fold change /veh CDKN2B (11736163_a_at) / RFU PRF1 (11729649_at) / Fold change /veh PRF1 (11729649_at) / RFU, ZNF638 /// ZNF638-IT1 / Fold change vs veh, ZNF638 /// ZNF638-IT1 / RFU, PANK3 / Fold change vs veh, PANK3 / RFU, SH3YL1 / Fold change vs veh, SH3YL1 / RFU, ZEB2 / Fold change vs veh, ZEB2 / RFU, NRIP1 / Fold change vs veh, NRIP1 / RFU, PTTG1IP / Fold change vs veh, PTTG1IP / RFU, CAPN2 / Fold change vs veh, CAPN2 / RFU, MED14 / Fold change vs veh, MED14 / RFU, SNORA58 / Fold change vs veh, SNORA58 / RFU, C1orf63 / Fold change vs veh, C1orf63 / RFU, LRRFIP1 / Fold change vs veh, LRRFIP1 / RFU, NDUFAF7 / Fold change vs veh, NDUFAF7 / RFU, SLC12A2 / Fold change vs veh, SLC12A2 / RFU, IBTK / Fold change vs veh, IBTK / RFU, ESF1 / Fold change vs veh, ESF1 / Fold change vs veh, TMEM50B / RFU, TAOK1 / Fold change vs veh, TAOK1 / RFU, ACBD3 / Fold change vs veh, ACBD3 / RFU, TMA16 / Fold change vs veh, TMA16 / RFU, RWDD3 / Fold change vs veh, RWDD3 / RFU, BCAT1 / Fold change vs veh, BCAT1 / RFU, EDEM3 / Fold change vs veh, EDEM3 / RFU, TMEM33 / Fold change vs veh, TMEM33 / RFU, WDR75 / Fold change vs veh, WDR75 / RFU, AHCTF1 / Fold change vs veh, AHCTF1 / RFU, TFRC / Fold change vs veh, TFRC / RFU, ZDHHC17 / Fold change vs veh, ZDHHC17 / RFU, NOM1 / Fold change vs veh, NOM1 / RFU, ARL8B / Fold change vs veh, ARL8B / RFU, ZBTB11 / Fold change vs veh, ZBTB11 / RFU, TAMM41 / Fold change vs veh, TAMM41 / RFU, KIAA1704 /// LOC100996395 / Fold change vs veh, KIAA1704 /// LOC100996395 / RFU, ING1 / Fold change vs veh, ING1 / RFU, TRMT61B / Fold change vs veh, TRMT61B / RFU, FUBP3 / Fold change vs veh, FUBP3 / RFU, TP53 / Fold change vs veh, TP53 / RFU, TNKS2 / Fold change vs veh, TNKS2 / RFU, ZFP14 / Fold change vs veh, ZFP14 / RFU, ACTR2 / Fold change vs veh, ACTR2 / RFU, PPP3R1 / Fold change vs veh, PPP3R1 / RFU, PIK3R1 / Fold change vs veh, PIK3R1 / RFU, HNRNPA1 / Fold change vs veh, HNRNPA1 / RFU, RNF170 / Fold change vs veh, RNF170 / RFU, ZNF28 / Fold change vs veh, ZNF28 / RFU, RNGTT / Fold change vs veh, RNGTT / RFU, OGT / Fold change vs veh, OGT / RFU, BRD1 / Fold change vs veh, BRD1 / RFU, MARS / Fold change vs veh, MARS / RFU, ZNF655 / Fold change vs veh, ZNF655 / RFU, FAHD1 / Fold change vs veh, FAHD1 / RFU, BDP1 / Fold change vs veh, BDP1 / RFU, LRRCC1 / Fold change vs veh, LRRCC1 / RFU, ARID1A / Fold change vs veh, ARID1A / RFU, ZNF146 / Fold change vs veh, ZNF146 / RFU, ZNF330 / Fold change vs veh, ZNF330 / RFU, GPN3 / Fold change vs veh, GPN3 / RFU, C9orf123 / Fold change vs veh, C9orf123 / RFU, N4BP2L2 / Fold change vs veh, N4BP2L2 / RFU, ARFIP1 / Fold change vs veh, ARFIP1 / RFU, FAM179B / Fold change vs veh, FAM179B / RFU, BCL10 / Fold change vs veh, BCL10 / RFU, UHRF1BP1L / Fold change vs veh, UHRF1BP1L / RFU, BET1 / Fold change vs veh, BET1 / RFU, CNOT2 / Fold change vs veh, CNOT2 / RFU, ZNF268 / Fold change vs veh, ZNF268 / Fold change vs veh, ZNF507 / RFU, DGCR2 / Fold change vs veh, DGCR2 / RFU, WDSUB1 / Fold change vs veh, WDSUB1 / Fold change vs veh, HSP90B1 /// MIR3652 / RFU, ADSS / Fold change vs veh, ADSS / RFU, GK / Fold change vs veh, GK / RFU, ZNF148 / Fold change vs veh, ZNF148 / RFU, TAF9 / Fold change vs veh, TAF9 / RFU, SLC1A5 / Fold change vs veh, SLC1A5 / RFU, SLMO2 / Fold change vs veh, SLMO2 / RFU, ABCC4 / Fold change vs veh, ABCC4 / RFU, LOC101060439 /// RAP1B / Fold change vs veh, LOC101060439 /// RAP1B / RFU, RFX7 / Fold change vs veh, RFX7 / RFU, GTPBP10 / Fold change vs veh, GTPBP10 / RFU, CNEP1R1 / Fold change vs veh, CNEP1R1 / RFU, BIVM-ERCC5 /// ERCC5 / Fold change vs veh, BIVM-ERCC5 /// ERCC5 / RFU, ILF3 / Fold change vs veh, ILF3 / RFU 11762660_at / Fold change /veh 11762660_at / RFU VCAN (11757783_s_at) / Fold change /veh VCAN (11757783_s_at) / RFU DDX43 (11728927_at) / Fold change /veh DDX43 (11728927_at) / RFU KRT8 (11758188_x_at) / Fold change /veh KRT8 (11758188_x_at) / RFU NKD1 (11759106_at) / Fold change /veh NKD1 (11759106_at) / RFU SRD5A1 (11742802_a_at) / Fold change /veh SRD5A1 (11742802_a_at) / RFU TPSAB1 /// TPSB2 (11721975_s_at) / Fold change /veh TPSAB1 /// TPSB2 (11721975_s_at) / RFU GSTM3 (11746129_a_at) / Fold change /veh GSTM3 (11746129_a_at) / RFU IL23R (11737362_x_at) / Fold change /veh IL23R (11737362_x_at) / RFU TMEM51 (11727254_a_at) / Fold change /veh TMEM51 (11727254_a_at) / RFU PIWIL2 (11732686_x_at) / Fold change /veh PIWIL2 (11732686_x_at) / RFU ORM1 (11744905_x_at) / Fold change /veh ORM1 (11744905_x_at) / RFU CCDC152 (11743942_at) / Fold change /veh CCDC152 (11743942_at) / RFU ECM1 (11717891_a_at) / Fold change /veh ECM1 (11717891_a_at) / RFU IL23R (11748794_a_at) / Fold change /veh IL23R (11748794_a_at) / RFU TNFAIP8L3 (11732012_x_at) / Fold change /veh TNFAIP8L3 (11732012_x_at) / RFU MBOAT4 (11741988_at) / Fold change /veh MBOAT4 (11741988_at) / RFU 11764193_at / Fold change /veh 11764193_at / RFU TMEM53 (11763286_at) / Fold change /veh TMEM53 (11763286_at) / RFU MAGEB2 (11727129_at) / Fold change /veh MAGEB2 (11727129_at) / RFU TMEM200A (11744735_a_at) / Fold change /veh TMEM200A (11744735_a_at) / RFU CCDC152 (11751479_a_at) / Fold change /veh CCDC152 (11751479_a_at) / RFU FAM211A (11726209_a_at) / Fold change /veh FAM211A (11726209_a_at) / RFU RGS16 (11746705_a_at) / Fold change /veh RGS16 (11746705_a_at) / RFU VCAN (11755009_s_at) / Fold change /veh VCAN (11755009_s_at) / RFU RHOB (11743442_s_at) / Fold change /veh RHOB (11743442_s_at) / RFU RGS16 (11720943_a_at) / Fold change /veh RGS16 (11720943_a_at) / RFU RGS16 (11720944_at) / Fold change /veh RGS16 (11720944_at) / RFU, VPS4B / Fold change vs veh, VPS4B / RFU, CREB1 / Fold change vs veh, CREB1 / RFU, DNAJC13 / Fold change vs veh, DNAJC13 / RFU, GNAQ / Fold change vs veh, GNAQ / RFU, CDK5R1 / Fold change vs veh, CDK5R1 / RFU, ZRANB3 / Fold change vs veh, ZRANB3 / RFU, CUL4A / Fold change vs veh, CUL4A / RFU, CCNY / Fold change vs veh, CCNY / RFU, UFL1 / Fold change vs veh, UFL1 / RFU, COG3 / Fold change vs veh, COG3 / RFU, DIAPH2 / Fold change vs veh, DIAPH2 / RFU, SKA2 / Fold change vs veh, SKA2 / RFU, AFF3 / Fold change vs veh, AFF3 / RFU, LMF1 / Fold change vs veh, LMF1 / RFU, IPO11 / Fold change vs veh, IPO11 / RFU, DFFB / Fold change vs veh, DFFB / RFU, FOXP1 / Fold change vs veh, FOXP1 / RFU, CARD8 / Fold change vs veh, CARD8 / RFU, STRN3 / Fold change vs veh, STRN3 / RFU, ADK / Fold change vs veh, ADK / RFU, RASSF2 / Fold change vs veh, RASSF2 / RFU, WIPF1 / Fold change vs veh, WIPF1 / RFU, LARP1B / Fold change vs veh, LARP1B / RFU, RASA1 / Fold change vs veh, RASA1 / RFU, RB1 / Fold change vs veh, RB1 / RFU, PPFIA1 / Fold change vs veh, PPFIA1 / RFU, MAT2A / Fold change vs veh, MAT2A / RFU, CCT5 / Fold change vs veh, CCT5 / RFU, WDR92 / Fold change vs veh, WDR92 / RFU, CUX1 / Fold change vs veh, CUX1 / RFU, TTC7A / Fold change vs veh, TTC7A / RFU, TMEM135 / Fold change vs veh, TMEM135 / RFU, DEPTOR / Fold change vs veh, DEPTOR / RFU, CPM / Fold change vs veh, CPM / RFU, DNAJB6 / Fold change vs veh, DNAJB6 / RFU, CACNA2D3 / Fold change vs veh, CACNA2D3 / RFU, DTX4 / Fold change vs veh, DTX4 / RFU, TFCP2 / Fold change vs veh, TFCP2 / RFU, GMCL1 /// GMCL1P1 / Fold change vs veh, GMCL1 /// GMCL1P1 / RFU, AEBP2 / Fold change vs veh, AEBP2 / RFU, SNHG1 /// SNORD22 /// SNORD25 /// SNORD26 /// SNORD27 /// SNORD28 /// SNORD29 /// SNORD31 / Fold change vs veh, SNHG1 /// SNORD22 /// SNORD25 /// SNORD26 /// SNORD27 /// SNORD28 /// SNORD29 /// SNORD31 / Fold change (Aza/veh), C12orf56 (ProbeSet 11735607_a_at) / Fold change (ACY-1035/veh), C12orf56 (ProbeSet 11735607_a_at) / Fold change (Aza/veh), FGFR1OP (ProbeSet 11751329_s_at) / Fold change (ACY-1035/veh), FGFR1OP (ProbeSet 11751329_s_at) / Fold change (Aza/veh), VPS36 (ProbeSet 11739960_a_at) / Fold change (ACY-1035/veh), VPS36 (ProbeSet 11739960_a_at) / RFU SYPL1 (11715823_x_at) / Fold change /veh SYPL1 (11715823_x_at) / RFU IGFBP7 (11715501_s_at) / Fold change /veh IGFBP7 (11715501_s_at) / RFU REEP3 (11722064_at) / Fold change /veh REEP3 (11722064_at) / RFU IGLL1 (11728026_x_at) / Fold change /veh IGLL1 (11728026_x_at): dose or concentration left out as unconfirmed
Settings: MV-4-11 cells, 48 hours

Nc1ccc(-c2cccs2)cc1NC(=O)c1ccc2c(c1)cc(C1CC1)n2CCN1CCOCC1 [ACY-1035]
Fold change /veh HLA-DPB1 (11760878_x_at): 1.16
